# “And” between values parts separate entries of the source, which are not always exact repeats. Equal entries are not always repeated. Structures can show the parent of a compound that is named as a salt.
# What was measured:
# Format in all cases: cell-based
# [1] = tested on: Glutathione-S transferase
# [2] = tested on: Homoprotocatechuate 2,3-dioxygenase
# AtzA [3] = biological target: T1, AtzA (Pseudomonas sp., UniProt P72156)
# T1 construct: expressed in transfected cells; host or cells: E. coli DH5α (pMD4)
# T1 sequence (P72156 1-474): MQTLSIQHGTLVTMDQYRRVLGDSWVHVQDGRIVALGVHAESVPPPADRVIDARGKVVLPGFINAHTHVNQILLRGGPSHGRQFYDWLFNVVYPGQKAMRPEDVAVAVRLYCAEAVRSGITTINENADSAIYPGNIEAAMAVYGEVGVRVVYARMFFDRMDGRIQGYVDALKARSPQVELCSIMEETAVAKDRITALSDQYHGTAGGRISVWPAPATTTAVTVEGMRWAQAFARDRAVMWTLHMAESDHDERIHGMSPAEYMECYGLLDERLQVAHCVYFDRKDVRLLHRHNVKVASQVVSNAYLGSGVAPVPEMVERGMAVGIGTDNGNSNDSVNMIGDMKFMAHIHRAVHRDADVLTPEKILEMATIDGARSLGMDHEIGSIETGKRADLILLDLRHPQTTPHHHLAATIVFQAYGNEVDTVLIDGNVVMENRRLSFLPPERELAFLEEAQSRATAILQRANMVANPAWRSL
# AtzA [4] = biological target: T1, AtzA; remark: listed apart in the source
# CAH [5] = biological target: T2, CAH (Moorella thermoacetica, UniProt Q2RGM7)
# T2 construct: expressed in transfected cells; host or cells: E. coli BL21(DE3)(pET28b+CAH), IPTG-induced
# T2 sequence (Q2RGM7 1-367): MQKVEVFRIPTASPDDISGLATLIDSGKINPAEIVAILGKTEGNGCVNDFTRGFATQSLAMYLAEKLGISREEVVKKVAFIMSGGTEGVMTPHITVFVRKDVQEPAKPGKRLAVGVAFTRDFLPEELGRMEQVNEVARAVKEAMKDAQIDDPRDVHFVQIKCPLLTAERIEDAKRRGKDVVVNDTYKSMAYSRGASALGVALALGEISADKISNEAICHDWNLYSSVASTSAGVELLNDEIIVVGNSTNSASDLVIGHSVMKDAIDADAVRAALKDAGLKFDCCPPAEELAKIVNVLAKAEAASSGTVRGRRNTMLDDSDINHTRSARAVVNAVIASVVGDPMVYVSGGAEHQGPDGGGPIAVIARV
# CAH [6] = biological target: T2, CAH; remark: listed apart in the source
# [7] = tested on: Pseudomonas sp. NCIB 9816-4
# Escherichia coli DH5α = tested on: Escherichia coli DH5α
# Azo reductase = biological target: T3, Azo reductase (Staphylococcus aureus, UniProt Q50H63)
# T3 construct: expressed in transfected cells; host or cells: E. coli DH5 alpha
# T3 sequence (Q50H63 1-188): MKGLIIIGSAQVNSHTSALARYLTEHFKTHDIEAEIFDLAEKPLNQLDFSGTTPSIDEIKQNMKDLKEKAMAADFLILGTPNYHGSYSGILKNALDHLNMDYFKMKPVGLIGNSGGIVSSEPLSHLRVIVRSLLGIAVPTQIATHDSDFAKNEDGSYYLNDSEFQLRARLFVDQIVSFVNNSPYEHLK
smiles,measurement,setting,value
"O=[N+]([O-])c1ccc(Cl)c([N+](=O)[O-])c1 [1-chloro2,4-dinitrobenzene]",Ratio (free cells/gel),[1],~3.8
"CC(=O)Oc1ccc(O)c(O)c1 [3,4 Dihydroxypheny acetate]",Ratio (free cells/gel),[2],1-2.5
"CCNc1nc(Cl)nc(NC(C)C)n1 [Atrazine, 2-chloro-4-ethylamino-6-isopropylamino-1,3,5-triazine]","atrazine removal, solutions left for 24 h",AtzA [3],complete atrazine removal
same,increase of degradation rate,AtzA [3],three-folds
same,enhancement of atrazine degradation rates,AtzA [4],threefold
same,"rate of atrazine removal, 75% phenyl gel compared to Teos gel",AtzA [4],approximately 3 fold
same,"rate of hydroxyatrazine formation, 75% phenyl gel compared to Teos gel",AtzA [4],approximately 3 fold
O=c1[nH]c(=O)[nH]c(=O)[nH]1 [Cyanuric acid],cyanuric acid removed,CAH [5],"over 7,000 M"
same,degradation of cyanuric acid (in words),CAH [5],complete degradation
same,decrease of initial rate of cyanuric acid degradation,CAH [6],approximately 50%
same,cyanuric acid level,CAH [6]; 15 h,undetectable levels
c1ccc2ccccc2c1 [Naphthalene],concentration (below detection limit),[7],< 1 nM
same,concentration left in the bulk solution (C/C0),[7],~25%
same,final concentration,Escherichia coli DH5α,215.39 ± 7.23 µM
same,remaining concentration,Escherichia coli DH5α,164.26 ± 8.90 µM and 107.67 ± 19.69 µM
Oc1ccccc1 [Phenol],removal of single substrate from hydrocarbon solution (in words),[7],very low removal
CN(C)c1ccc(/N=N/c2ccccc2C(=O)O)cc1 [methyl red sodium salt],Ratio (free cells/gel),Azo reductase,1.8-3.7
Cc1ccc(O)cc1 [p-Cresol],removal of single substrate from hydrocarbon solution (in words),[7],completely degraded

# — patent US20160175634A1 (priority 2014, published 2016)
